# Results taken from patent publication US12521450B2, “DNA, expression vector, transcript, cell, pharmaceutical composition, and medicine” (Hitachi, Ltd., priority 2021, dated 2026).
# Tested on: SF3B1 K700E mutant cell derived from the HEK293FT cells
# Assay: GCV-concentration-dependent cell death, MTT assay, lentiviral HSV-TK (BRD9 intron) in genome-edited cells
# Format: cell-based
# Conditions: SF3B1 K700E mutant cell (one allele) vs SF3B1 normal cell; GCV 100 to 0.16 μg/mL, 48 hours; FIG. 7
# Method: In this example, in order to verify the toxicity of a suicide gene in a cell having an SF3B1 K700E mutation in one allele in a genome, as in actual cancer cells, HEK293FT cells were genome-edited and an SF3B1 K700E mutant cell strain was established.
# Meanwhile, an HSV-TK expression lentiviral vector containing the BRD9 intron was prepared using the pHR vector shown in SEQ ID NO: 11 (FIGS. 3A and 3B). The lentiviral vector was introduced into the SF3B1 K700E mutant strain and an SF3B1 normal strain as a control, and the number of cells killed by the addition of GCV was quantified using the MTT assay method. A detailed procedure will be shown below. […]
# The solubilized solution of the MTT cell number measuring kit (Nacalai Tesque Inc.) was added into the HEK293FT cells at 100 μL/well, and the mixture was incubated at 37° C. After 20 hours, the absorbance at 570 nm (reference wavelength: 655 nm) was measured with the microplate reader.
# The number of viable cells was calculated based on a standard curve using the above-mentioned serially diluted HEK293FT cells, and the viability was shown as a ratio when the number of cells in the GCV-free group was 100%. Further, the efficacy was evaluated by comparing the cytotoxicity due to GCV addition in the SF3B1 normal cell with the cytotoxicity of the SF3B1 K700E mutant cell. […]
substance,measurement,value
"suicide gene containing the BRD9 intron: SFFV promoter, HSV-TK inserted with an intron of BRD9 containing no normal acceptor sequence, puromycin resistance gene linked by P2A",viability (ratio when the number of cells in the GCV-free group was 100%),viability lower than that of the SF3B1 normal cell
